≈ marks a conversion by molar mass, not a printed value. Where two headings read alike, the source gives them in different places. Non-standard residues stand in square brackets, D forms with d. Residues, ends and D or L forms follow the SMILES beside them.
How the values were obtained:
Type in all cases: cell-based, Staphylococcus aureus
S. aureus isolates [1] = assay: microbe, parasite or virus in culture
Procedure: (§1) Minimum inhibitory concentrations (MIC) of KLK, mKLK, and vancomycin were determined using microdilution broth assay according to clinical and laboratory standards institute (CLSI) guidelines with some modifications. Briefly, overnight cultures were diluted in Muller-Hinton broth (MHB; Merck, Germany) to achieve a final density of 5 × 10^5 CFU/ml. A volume of 100 μl of bacterial suspension was added to wells of sterile 96-well plates containing 100 μl of two-fold peptide dilutions, ranging from 0.25 to 256 µg/ml. Vancomycin was used as a positive control in this assay. […] MBC was determined by removing samples from wells with no visible growth, serially diluting, and plating on Mueller Hinton (MH) agar plates for CFU counting.

S. aureus isolates [2] = system: S. aureus isolates
Procedure: as §1

[3] = system: preformed S. aureus biofilms
Procedure: The eradicative activity of KLK and mKLK peptides against preformed S. aureus biofilms was evaluated by determining MBEC, as previously described. The 24-h biofilms developed in TSB in a 96-well plate were washed three times with 200 μl PBS solution. Concentrations of the peptides ranging from 2 to 1024 µg/ml were prepared. A volume of 100 μl of each concentration was added to a corresponding well, and plates were incubated for 18–20 h at 37 °C. Then, wells were washed with sterile PBS solution, and 100 μl of PBS solution was added. The wells were thoroughly scraped with a sterile pipette tip, vortexed and sonicated to release the biofilm cells from the well surface. Subsequently, 10 μl of well contents were plated on MHA. Colonies were counted after 20 h at 37 °C. The MBEC was defined as the lowest concentration of peptide that inhibited bacterial regrowth.

S. aureus strains [4] = assay: Inhibition of bacterial surface attachment (crystal violet)
Procedure: (§2) To investigate the inhibitory effect of KLK and mKLK peptides on bacterial surface attachment and biofilm formation, the bacterial suspension in TSB with a concentration of 10^7 CFU/ml was prepared from overnight culture. An aliquot of 100 μl of the bacterial suspension was added to wells of 96-well plates containing 100 μl of the peptides solution with concentrations of 1×, 1/2× and 1/4× MIC, resulting in the final peptides concentrations of 1/2×, 1/4× and 1/8× MIC. To investigate the inhibitory effect of the peptides on surface attachment the incubation was performed at 37 °C for 2 h and to evaluate their inhibitory activity on biofilm formation the incubation was performed at 37 °C for 24 h. The wells containing only TSB medium were used as negative controls. After incubation, the contents of the wells were removed and washed three times with PBS and the wells were stained with 200 μl of 0.1% crystal violet for 20 min. The plates were washed again and excess dye was removed. A volume of 200 μl of 95% ethanol was added to each well for 20 min and absorbance was measured at 570 nm by a microplate reader.

S. aureus strains [5] = settings: ATCC25923, control 2.302±0.006
Procedure: as §2

## CC(C)C[C@@H](NC(=O)[C@H](N)CCCCN)C(=O)N[C@H](CCCCN)C(=O)N[C@H](CC(C)C)C(=O)N[C@H](CC(C)C)C(=O)N[C@H](CC(C)C)C(=O)N[C@H](CC(C)C)C(=O)N[C@H](CC(C)C)C(=O)N[C@H](CCCCN)C(=O)N[C@H](CC(C)C)C(=O)N[C@H](CCCCN)C(N)=O [KLK] (H-[dK][dL][dK][dL][dL][dL][dL][dL][dK][dL][dK]-NH2; N-terminus assumed)
S. aureus isolates [1]; ATCC25923
  MIC: 4 µg/mL (≈ 3.03 µM)
S. aureus isolates [1]; MRSA-1
  MIC: 8 µg/mL (≈ 6.05 µM)
S. aureus isolates [1]; MRSA-2
  MIC: 8 µg/mL (≈ 6.05 µM)
S. aureus isolates [1]; MRSA-3
  MIC: 8 µg/mL (≈ 6.05 µM)
S. aureus isolates [1]; MSSA-1
  MIC: 4 µg/mL (≈ 3.03 µM)
S. aureus isolates [1]; MSSA-2
  MIC: 4 µg/mL (≈ 3.03 µM)
S. aureus isolates [1]; three MRSA isolates
  MIC: 8 µg/mL (≈ 6.05 µM)
S. aureus isolates [1]; two MSSA isolates
  MIC: 4 µg/mL (≈ 3.03 µM)
S. aureus isolates [2]; ATCC25923
  MBC: 4 µg/mL (≈ 3.03 µM)
S. aureus isolates [2]; MRSA-1
  MBC: 8 µg/mL (≈ 6.05 µM)
S. aureus isolates [2]; MRSA-2
  MBC: 8 µg/mL (≈ 6.05 µM)
S. aureus isolates [2]; MRSA-3
  MBC: 8 µg/mL (≈ 6.05 µM)
S. aureus isolates [2]; MSSA-1
  MBC: 4 µg/mL (≈ 3.03 µM)
S. aureus isolates [2]; MSSA-2
  MBC: 4 µg/mL (≈ 3.03 µM)
[3]; ATCC25923
  MBEC: 512 µg/mL
[3]; MRSA-1
  MBEC: 1024 µg/mL
[3]; MRSA-2
  MBEC: 1024 µg/mL
[3]; MRSA-3
  MBEC: 1024 µg/mL
[3]; MSSA-1
  MBEC: 512 µg/mL
[3]; MSSA-2
  MBEC: 512 µg/mL
[3]; preformed biofilms
  MBEC, range over isolates: 512 to 1024 µg/mL
S. aureus strains [4]; ATCC25923, 1/2MIC, control 2.136±0.01
  crystal violet absorbance at 570 nm, bacterial attachment, Mean±SD: 1.904±0.08
S. aureus strains [4]; ATCC25923, 1/4MIC, control 2.136±0.01
  crystal violet absorbance at 570 nm, bacterial attachment, Mean±SD: 1.965±0.03
S. aureus strains [4]; ATCC25923, 1/8MIC, control 2.136±0.01
  crystal violet absorbance at 570 nm, bacterial attachment, Mean±SD: 2.03±0.07
S. aureus strains [4]; MRSA-1, 1/2MIC, control 1.861±0.02
  crystal violet absorbance at 570 nm, bacterial attachment, Mean±SD: 1.508±0.03
S. aureus strains [4]; MRSA-1, 1/4MIC, control 1.861±0.02
  crystal violet absorbance at 570 nm, bacterial attachment, Mean±SD: 1.712±0.01
S. aureus strains [4]; MRSA-1, 1/8MIC, control 1.861±0.02
  crystal violet absorbance at 570 nm, bacterial attachment, Mean±SD: 1.8±0.17
S. aureus strains [4]; MRSA-2, 1/2MIC, control 2.311±0.005
  crystal violet absorbance at 570 nm, bacterial attachment, Mean±SD: 2.082±2.02
S. aureus strains [4]; MRSA-2, 1/4MIC, control 2.311±0.005
  crystal violet absorbance at 570 nm, bacterial attachment, Mean±SD: 2.146±0.008
S. aureus strains [4]; MRSA-2, 1/8MIC, control 2.311±0.005
  crystal violet absorbance at 570 nm, bacterial attachment, Mean±SD: 2.198±0.04
S. aureus strains [4]; MRSA-3, 1/2MIC, control 1.491±0.06
  crystal violet absorbance at 570 nm, bacterial attachment, Mean±SD: 1.031±0.07
S. aureus strains [4]; MRSA-3, 1/4MIC, control 1.491±0.06
  crystal violet absorbance at 570 nm, bacterial attachment, Mean±SD: 1.369±0.01
S. aureus strains [4]; MRSA-3, 1/8MIC, control 1.491±0.06
  crystal violet absorbance at 570 nm, bacterial attachment, Mean±SD: 1.428±0.06
S. aureus strains [4]; MSSA-1, 1/2MIC, control 2.107±0.08
  crystal violet absorbance at 570 nm, bacterial attachment, Mean±SD: 1.89±0.002
S. aureus strains [4]; MSSA-1, 1/4MIC, control 2.107±0.08
  crystal violet absorbance at 570 nm, bacterial attachment, Mean±SD: 1.925±0.06
S. aureus strains [4]; MSSA-1, 1/8MIC, control 2.107±0.08
  crystal violet absorbance at 570 nm, bacterial attachment, Mean±SD: 2.006±0.01
S. aureus strains [4]; MSSA-2, 1/2MIC, control 2.061±0.01
  crystal violet absorbance at 570 nm, bacterial attachment, Mean±SD: 1.804±0.03
S. aureus strains [4]; MSSA-2, 1/8MIC, control 2.061±0.01
  crystal violet absorbance at 570 nm, bacterial attachment, Mean±SD: 1.958±0.07
S. aureus strains [5]; 1/2MIC
  crystal violet absorbance at 570 nm, biofilm formation, Mean±SD: 1.654±0.006
S. aureus strains [5]; 1/4MIC
  crystal violet absorbance at 570 nm, biofilm formation, Mean±SD: 2.069±0.04

Source: article PMC10817945, “Design of a novel analogue peptide with potent antibiofilm activities against Staphylococcus aureus based upon a sapecin B-derived peptide” (Scientific Reports, 2024)
